From PubChem BioAssay AID2305 (GlaxoSmithKline (GSK), 2010) come the findings set out here.

As a reminder, the IC50 is the concentration that inhibits the measured activity by half. The low end stands for higher potency, the high end for lower potency.

Where “and” joins values, the source holds several entries; their conditions need not be identical. Equal values may be shown once.

The subject of the assay is P. falciparum 3D7 growth, pLDH absorbance. Kind of assay: blood-stage malaria parasite growth potency – strain 3D7, dose response (AID 2305).
Consider `C=C(F)c1sc(CNCCCNc2nc3ccccc3[nH]2)c(C)c1Br`, for which the IC50 came out at 370 nM.
Under `COc1cc(C(=O)NC2CCc3ccccc32)cc(Cl)c1OC` (stereo not drawn) stands 1100 nM.
Under `CC(=O)c1ccc(-c2ccccc2)s1` stands 1080 nM; under `COc1ccc(CN2CCCN(Cc3cccc(C(=O)Nc4ccc(C(C)(C)C)cc4)c3)CC2)cc1`, 890 nM.
To `N#Cc1cccc(Nc2nccc(Nc3ccc(Oc4ccccc4)cc3)n2)c1` belongs 830 nM.
`COc1ccc(Cn2c(N3CCN(S(=O)(=O)c4ccc(OC)cc4)CC3)nc3c2c(=O)n(CC2CC2)c(=O)n3CC2CC2)cc1` registered an IC50 of 890 nM.
To `CC(C)CNC(=O)c1ccnc(-c2ccc(CNC3Cc4ccccc4C3)cc2)c1` belongs 790 nM.
Under `O=C(/C=C/c1ccc(Cl)c(Cl)c1)NCCC1CCC(N2CCC(c3c[nH]c4ccccc34)CC2)CC1` (stereo not drawn) stands 200 nM.
Under `CNc1c2c(nc3ccc(NC(=O)CCCCCCc4ccccc4)cc13)CCCC2` stands 920 nM; under `Cc1cc(NCc2ccccc2)nc(NCc2ccccc2)n1`, 970 nM.
In turn, `Oc1cc(Nc2ccnc3cc(I)ccc23)ccc1F` gave a 50% inhibitory concentration (IC50) of 740 nM.
To `OCCC1CCN(Cc2ccc(-c3ccc(-c4nc5ccccc5[nH]4)cc3)cc2)CC1` belongs 770 nM.
To `COc1cc(NC(=O)c2ccc(-c3ccccc3)cc2)ccc1OCCCN1CCC(c2ccccc2)CC1` belongs 750 nM.
To `CCCC(C)n1ccc2c3c(N)nc(N)nc3ccc21` (stereo not drawn) belongs 50 nM; to `CC(=O)Nc1ncc(C(=O)Nc2cccc(-c3cccc(-c4nc5c(C)cccc5[nH]4)c3)c2)s1`, 350 nM.
As for `CC1(C)CCNc2cc(NC(=O)c3ccc(-c4ncccc4C(F)(F)F)cc3)ccc21`, the IC50 amounted to 900 nM.
Consider `Cc1ccc(Nc2nc(NN=Cc3ccc(-c4ccc([N+](=O)[O-])cc4)o3)nc(N3CCOCC3)n2)cc1Cl`, for which the IC50 was 650 nM.
In the case of `C[C@H](O)[C@@](C)(CO)NCc1ccc2c3c(cccc13)-c1ccccc1-2`, the IC50 amounted to 820 nM.
As for `CCCCCCN1CCC(NCc2ccc(Cl)cc2)CC1`, the IC50 is 850 nM.
Under `COc1ccc(OC)c(Cc2cnc3nc(N)[nH]c(=O)c3c2C)c1` stands 360 nM; under `Cc1cc(N[C@@H](Cc2ccccc2)C(=O)NCc2cccc(F)c2)nc(NCCc2cccnc2)n1`, 1340 nM.
Under `Cc1cccc2[nH]c(-c3cccc(-c4cccc(C(=O)NCCc5cn(C)cn5)c4)c3)nc12` stands 590 nM; under `COc1ccc(Nc2nccc(N3CCC(NC(=O)c4cccc(NC(C)=O)c4)C3)n2)cc1` (stereo not drawn), 990 nM; under `CC(C)(CNC(=O)[C@H]1CCCCN1)c1nc(-c2ccc(Cl)c(O)c2)c(-c2ccncc2)[nH]1`, 730 nM.
Under `Cc1cc(=O)c(-c2ccc(Sc3ccc(Cl)cc3)cc2)c(C)[nH]1` stands 970 nM; under `C=CCOC(=O)N1CCC(CNCc2cccc(-c3ccc(-c4nc5ccc(C(F)(F)F)cc5[nH]4)cc3)c2)C1` (stereo not drawn), 150 nM; under `Cc1cccc(Nc2nc(N)c3ccccc3n2)c1`, 570 nM.
`Oc1cc(Nc2ccnc3ccc(I)cc23)c(F)cc1Cl` yielded an IC50 of 1230 nM.
To `N#Cc1cccc(C(=O)NC2CCN(c3ccnc(Nc4ccc(F)cc4)n3)C2)c1` (stereo not drawn) belongs 400 nM.
To `Cc1cc(Nc2cccc(Cl)c2)nc2ccc(NC(=O)c3ccc(=O)[nH]c3)cc12` belongs 1000 nM; to `Fc1ccc2[nH]cc(CCN3CCC(CNCc4ccccc4)CC3)c2c1`, 30 nM; to `CN(C)CCN(C)Cc1ccc(-c2ccc(NC(=O)c3cccc(Cl)c3)cc2)cc1`, 1140 nM.
To `c1cc(Nc2nccc(-c3cnn4ncccc34)n2)cc(-c2cnco2)c1` belongs 690 nM; to `COc1cc(OC)cc(C(=O)Nc2nc(-c3ccccn3)cs2)c1`, 560 nM.
In the case of `O=C(Nc1ccc([N+](=O)[O-])cc1)Nc1cc(OCC(F)(F)F)cc(OCC(F)(F)F)c1`, the half-maximal inhibitory concentration (IC50) came to 470 nM.
Under `N#CC1(c2ccccc2)CCN(c2nc(NCCCN3CCCC3=O)nc(N3CCCC4CCCCC43)n2)CC1` (stereo not drawn) stands 860 nM.
Under `Cc1cccc2[nH]c(-c3ccc(-c4cccc(NC(=O)c5cnccc5C(F)(F)F)c4)cc3)nc12` stands 1000 nM.
To `CCCC(=O)c1cnc2c(I)cccc2c1Nc1ccccc1C` belongs 1160 nM; to `Cc1cccc(C(=O)Nc2ccnc(N(C)C3CCN(Cc4cccc(O)c4)CC3)c2)c1`, 940 nM.
On to `COc1cc(CNc2ncc(-c3ccsc3)c(-c3nccs3)n2)cc(OC)c1`, for which the IC50 was 130 nM.
Under `Cc1cc(Nc2c(C(N)=O)cnc3cc(-c4ccoc4)ccc23)ccc1N1CCN(C)CC1` stands 800 nM; under `COc1ccc(Br)cc1/C=C/C(=O)Nc1ccc2c(c1)CCCN(C)C2`, 1560 nM; under `O=C(NC1CCN(Cc2ccccc2)C1)c1ccc(Nc2ccc(Br)cc2)nc1` (stereo not drawn), 1080 nM.
Under `Cn1nc(-c2ccc(CNC3CCc4ccccc43)cc2)c2cnc(NCCCN3CCCC3)nc21` (stereo not drawn) stands 1110 nM; under `Cc1cccc2[nH]c(-c3cccc(-c4cccc(CNCCNC(=O)c5ccnn5C)c4)c3)nc12`, 190 nM.
Under `CCN(CC)CCN(Cc1ccc(-c2ccc(Cl)cc2)cc1)C(=O)Cn1c(CCc2cccc(F)c2F)nc(=O)c2ccccc21` stands 770 nM; under `Cn1c(CN2CCC(N3CCc4cc(NC(=O)c5ccco5)ccc43)C2)cc2ccccc21` (stereo not drawn), 880 nM.
Regarding `CC(C)(C)c1ccc(CNC(=O)c2cc(CNC3CCC(N)CC3)ccc2O)cc1` (stereo not drawn), the IC50 was 1030 nM.
To `Nc1cccc(CNCc2cccc(-c3ccc(-c4nc5ccccc5[nH]4)cc3)c2)c1` belongs 420 nM; to `Oc1cccc2c1CC(NCc1ccccc1)CC2` (stereo not drawn), 890 nM.
Take `O=C(/C=C/c1ccc(Cl)c(Cl)c1)NCCCCCN1CCC(NC(=O)c2ccc(F)cc2)CC1`: the 50% inhibitory concentration (IC50) was 710 nM.
Under `C=C(C)Cn1cc(C2CCN(CCN3CCC(CNC(=O)c4ccc(-c5ccc(C#N)cc5)cc4)CC3)CC2)c2ccccc21` stands 430 nM; under `O=C(/C=C/c1ccc(Cl)c(Cl)c1)NCCCCCN1CC[C@H](c2c[nH]c3ccccc23)[C@H](O)C1`, 820 nM.
Under `CN(CCCNCc1cccc2ccccc12)CCCNCc1cccc2ccccc12` stands 720 nM; under `Cc1[nH]c(/C=C2\C(=O)Nc3ccc(S(=O)(=O)Cc4c(Cl)cccc4Cl)cc32)c(C)c1C(=O)N1CCC[C@@H]1CN1CCCC1`, 720 nM; under `CCCC(C)NC(=O)[C@H](CC1CCCCC1)NC(=O)c1ccc(O)c(-c2cccc(C(F)(F)F)c2)c1` (stereo partly drawn), 530 nM.
Under `COc1c(C2CCN(CCCCNC(=O)c3ccc(-c4ccc(C(=O)C(F)(F)F)cc4)cc3)CC2)ccc2c1CCCC2` stands 1100 nM; under `CN1CCN(c2cccc(NC(=O)c3ccc(-c4ccc(C#N)cc4)cc3)c2)CC1`, 1260 nM.
`Fc1ccc2nc(-c3ccc(-c4ccc(CN5CCC(CCN6CCCCC6)CC5)cc4)s3)[nH]c2c1` registered an IC50 of 140 nM.
To `CC1CC(C)CN(CC(O)CNC(=O)Nc2ccc(Br)cc2)C1` (stereo not drawn) belongs 1050 nM; to `CC(=O)c1sc(Cc2nc3ccccc3s2)nc1C`, 1070 nM.
To `Cc1nc2ccc([N+](=O)[O-])cc2c(=O)n1OCc1ccccc1` belongs 210 nM; to `CCOc1cc(C(=O)Nc2ccc3nc(N4CCCCC4)cc(C)c3c2)cc(OCC)c1OCC`, 820 nM; to `Cc1cccc(-c2nn(-c3ccccc3)c3[nH]c(=O)c(CNC4CCCC4)cc23)c1`, 760 nM.
Under `Cc1ccc(C(=O)NC2CCN(CCNC(=O)Nc3cc(C)nc4ccccc34)CC2)cc1` stands 490 nM; under `COc1ccc2ncc(C#N)c(CCN3CCC(NCc4ccc5c(c4)OCCO5)CC3)c2c1`, 910 nM.
On to `O=C(Nc1ccc2c(c1)CN(Cc1ccc(N3CCCC3)o1)CCC2)c1ccoc1`, for which the IC50 came to 950 nM.
To `Fc1cccc(CNc2ncc(-c3ccsc3)c(-c3nccs3)n2)c1` belongs 240 nM; to `CN(C)CCN(C)Cc1ccc(-c2ccc3c(Nc4ccc(Oc5ccccc5)cc4)ccnc3c2)o1`, 180 nM.
In the case of `CCCCN(CCCC)CCNC(=O)c1ccc(-c2nc3ccc(Cl)cc3[nH]2)c(OCC)c1`, the IC50 turned out to be 570 nM.
Under `CCc1cn2c3c(cc(C(=O)N[C@@H](Cc4ccccc4)[C@H](O)CN[C@@H](C)CC)cc13)N(C)S(=O)(=O)CC2` stands 70 nM.
As to `COc1cc(/C=C/C(=O)NC2CCC(CN3CCC(c4c[nH]c5ccccc45)CC3)CC2)ccc1O` (stereo not drawn), the IC50 is 810 nM and 790 nM.
Under `COCCN1CCC(CN(C)CC(C)(C)c2nc(-c3ccc(Cl)c(O)c3)c(-c3ccncc3)[nH]2)CC1` stands 1030 nM.
To `O=C(Cc1cccc(O)c1)Nc1ccc(-c2cccc(-c3nc4ccc(C(F)(F)F)cc4[nH]3)c2)cc1` belongs 980 nM; to `Cc1cc(N[C@@H](CC(C)C)C(=O)NCCOc2ccccc2)nc(NCCOc2ccccc2)n1`, 1490 nM.
Under `Cn1cncc1C(=O)Nc1ccc(-c2ccc(-c3nc4ccc(C(F)(F)F)cc4[nH]3)cc2)cc1` stands 560 nM; under `O=C(N[C@@H](Cc1ccccc1)[C@H](O)CNC1CCCc2ccccc21)c1cc(C2CCCC2)cc(N2CCCC2=O)c1` (stereo partly drawn), 160 nM.
`O=C(/C=C/c1ccc(Cl)c(Cl)c1)NCCCCCN1CC[C@H](NC(=O)c2sc3ccccc3c2Cl)C1` yielded a half-inhibitory concentration (IC50) of 810 nM.
To `Cc1[nH]c(C)c(-c2ccc(Oc3ccccc3)cc2)c(=O)c1Br` belongs 50 nM; to `OC(c1n[nH]c(=S)n1-c1ccccc1)C(O)c1n[nH]c(=S)n1-c1ccccc1` (stereo not drawn), 740 nM.
`CCCCc1cc(NCC)nc(Nc2ccc(OC)cc2)n1`: the IC50 came to 1180 nM.
`CN(C)CCNCc1ccc(-c2ccc(-c3nc4ccc(F)cc4[nH]3)cc2)cc1`: the IC50 came to 470 nM.
To `CC(C)CCN=C(N)Nc1ccc(OCCCCCOc2ccc(NC(N)=NCCC(C)C)cc2)cc1` belongs 1080 nM; to `COc1cc(Cc2cnc(NCCN3CCNCC3)nc2N)ccc1OCc1ccc(C(F)(F)F)cc1`, 920 nM.
To `COC(=O)c1ccc(CC(C)NCC(O)c2cccc(C(F)(F)F)c2)cc1` (stereo not drawn) belongs 970 nM and 1150 nM; to `Cc1ccc2nc(-c3ccc(C=CC(=O)NC4CCN(Cc5ccccc5)CC4)cc3)[nH]c2c1`, 680 nM.
To `Cc1cnc(Nc2cccnc2)nc1Nc1ccccc1C(=O)NC(C)C` belongs 1200 nM.
Turning to `O=C(/C=C/c1ccc(Cl)c(Cl)c1)NCCCCCN1CCC(NC(=O)c2ccc(F)cc2F)CC1`, the IC50 worked out at 760 nM.
